Experimental data published in patent US20160367623A1, “AGONISTS OF GUANYLATE CYCLASE USEFUL FOR THE TREATMENT OF GASTROINTESTINAL DISORDERS, INFLAMMATION, CANCER AND OTHER DISORDERS” (priority 2015, published 2016).
Bridge positions count the residues as written; N and C are the ends. Ends that are not written are not given here.

Tested on: patients with chronic idiopathic constipation (CIC)
Assay: Second phase 3 CIC trial: CSBM weekly responders by week
Format: in vivo, human
Settings: MRA
From the text: Both trials include a two-week pre-treatment baseline period, a 12-week treatment period, and a two-week post-treatment period. The phase 3 CIC program was designed to support regulatory submission in the U. S.
The primary endpoint for both trials is the proportion of durable overall responders (%), which is the current regulatory endpoint required for U.S. approval in CIC. The FDA has defined a durable overall responder as a patient who fulfills both ≧3 complete spontaneous bowel movements (CSBMs) per week plus an increase of ≧1 CSBM from baseline in the same week, for 9 out of the 12 treatment weeks. In addition, the same patient must be an overall responder for at least 3 of the last 4 treatment weeks in order to be considered a durable overall responder.
Patients were selected using Rome 3 criteria modified for CIC and had (1) fewer than 3 defecations per week, (2) loose stools occurring rarely without laxatives, (3) inadequate criteria for irritable bowel syndrome with constipation (IBS-C), and (4) at least two of the following applied to at least 25% of defecations: (a) straining during evacuation, (b) lumpy or hard stools, (c) sensation of anorectal obstruction or blockage. Rome 3 requires patients to fulfill the criteria for the last 3 months with symptom onset at least 6 months prior to diagnosis.

[1] = Week 6, 3 mg, ITT Population-Excluding Duplicate Patients
[2] = Week 6, 6 mg, ITT Population-Excluding Duplicate Patients
[3] = Week 6, Active Combined, ITT Population-Excluding Duplicate Patients
[4] = Week 6, Active Combined, ITT Population
[5] = Week 7, 3 mg, ITT Population-Excluding Duplicate Patients
[6] = Week 7, 6 mg, ITT Population-Excluding Duplicate Patients
[7] = Week 7, Active Combined, ITT Population-Excluding Duplicate Patients
[8] = Week 7, Active Combined, ITT Population
[9] = Week 8, 3 mg, ITT Population-Excluding Duplicate Patients
[10] = Week 8, 6 mg, ITT Population-Excluding Duplicate Patients
[11] = Week 8, Active Combined, ITT Population-Excluding Duplicate Patients
[12] = Week 8, Active Combined, ITT Population
[13] = Week 9, 3 mg, ITT Population-Excluding Duplicate Patients
[14] = Week 9, 6 mg, ITT Population-Excluding Duplicate Patients

Asn^1-Asp^2-Glu^3-Cys^4-Glu^5-Leu^6-Cys^7-Val^8-Asn^9-Val^10-Ala^11-Cys^12-Thr^13-Gly^14-Cys^15-Leu^16 (NDECELCVNVACTGCL; disulfide 4-12, 7-15) [Plecanatide, uroguanylin analogue, guanylate cyclase-C agonist; (C4:C12, C7:C15) bicycle peptide]
Non-Responders, n (%) (Week 5, Active Combined, ITT Population): 605 (67.8) n (%)
Difference in Proportions (adjusted) (Week 6, 3 mg minus placebo, All Randomized (includes Duplicate Patients)): 0.100
Odds Ratio (adjusted) (Week 6, 3 mg vs placebo, All Randomized (includes Duplicate Patients)): 0.593
CSBM Weekly Responders, n (%) (Week 6, 3 mg, ITT Population): 137 (30.9) n (%)
Non-Responders, n (%) (Week 6, 3 mg, ITT Population): 306 (69.1) n (%)
CSBM Weekly Responders, n (%) [1]: 136 (31.3) n (%)
Non-Responders, n (%) [1]: 298 (68.7) n (%)
Difference in Proportions (adjusted) (Week 6, 6 mg minus placebo, All Randomized (includes Duplicate Patients)): 0.110
Odds Ratio (adjusted) (Week 6, 6 mg vs placebo, All Randomized (includes Duplicate Patients)): 0.566
CSBM Weekly Responders, n (%) (Week 6, 6 mg, ITT Population): 146 (32.5) n (%)
Non-Responders, n (%) (Week 6, 6 mg, ITT Population): 303 (67.5) n (%)
CSBM Weekly Responders, n (%) [2]: 146 (33.0) n (%)
Non-Responders, n (%) [2]: 297 (67.0) n (%)
Difference in Proportions (adjusted) (Week 6, 3 mg minus placebo, ITT Population-Excluding Duplicate Patients): 0.096
Difference in Proportions (adjusted) (Week 6, 3 mg minus placebo, ITT Population): 0.093
Odds Ratio (adjusted) (Week 6, 3 mg vs placebo, ITT Population-Excluding Duplicate Patients): 0.610
Odds Ratio (adjusted) (Week 6, 3 mg vs placebo, ITT Population): 0.615
Difference in Proportions (adjusted) (Week 6, 6 mg minus placebo, ITT Population-Excluding Duplicate Patients): 0.112
Difference in Proportions (adjusted) (Week 6, 6 mg minus placebo, ITT Population): 0.109
Odds Ratio (adjusted) (Week 6, 6 mg vs placebo, ITT Population-Excluding Duplicate Patients): 0.565
Odds Ratio (adjusted) (Week 6, 6 mg vs placebo, ITT Population): 0.571
CSBM Weekly Responders, n (%) [3]: 282 (32.2) n (%)
Non-Responders, n (%) [3]: 595 (67.8) n (%)
CSBM Weekly Responders, n (%) [4]: 283 (31.7) n (%)
Non-Responders, n (%) [4]: 609 (68.3) n (%)
Difference in Proportions (adjusted) (Week 7, 3 mg minus placebo, All Randomized (includes Duplicate Patients)): 0.091
Odds Ratio (adjusted) (Week 7, 3 mg vs placebo, All Randomized (includes Duplicate Patients)): 0.634
CSBM Weekly Responders, n (%) (Week 7, 3 mg, ITT Population): 145 (32.7) n (%)
Non-Responders, n (%) (Week 7, 3 mg, ITT Population): 298 (67.3) n (%)
CSBM Weekly Responders, n (%) [5]: 144 (33.2) n (%)
Non-Responders, n (%) [5]: 290 (66.8) n (%)
Difference in Proportions (adjusted) (Week 7, 6 mg minus placebo, All Randomized (includes Duplicate Patients)): 0.075
Odds Ratio (adjusted) (Week 7, 6 mg vs placebo, All Randomized (includes Duplicate Patients)): 0.681
CSBM Weekly Responders, n (%) (Week 7, 6 mg, ITT Population): 140 (31.2) n (%)
Non-Responders, n (%) (Week 7, 6 mg, ITT Population): 309 (68.8) n (%)
CSBM Weekly Responders, n (%) [6]: 140 (31.6) n (%)
Non-Responders, n (%) [6]: 303 (68.4) n (%)
Difference in Proportions (adjusted) (Week 7, 3 mg minus placebo, ITT Population-Excluding Duplicate Patients): 0.089
Difference in Proportions (adjusted) (Week 7, 3 mg minus placebo, ITT Population): 0.085
Odds Ratio (adjusted) (Week 7, 3 mg vs placebo, ITT Population-Excluding Duplicate Patients): 0.645
Odds Ratio (adjusted) (Week 7, 3 mg vs placebo, ITT Population): 0.659
Difference in Proportions (adjusted) (Week 7, 6 mg minus placebo, ITT Population-Excluding Duplicate Patients): 0.074
Difference in Proportions (adjusted) (Week 7, 6 mg minus placebo, ITT Population): 0.069
Odds Ratio (adjusted) (Week 7, 6 mg vs placebo, ITT Population-Excluding Duplicate Patients): 0.693
Odds Ratio (adjusted) (Week 7, 6 mg vs placebo, ITT Population): 0.707
CSBM Weekly Responders, n (%) [7]: 284 (32.4) n (%)
Non-Responders, n (%) [7]: 593 (67.6) n (%)
CSBM Weekly Responders, n (%) [8]: 285 (32.0) n (%)
Non-Responders, n (%) [8]: 607 (68.0) n (%)
Difference in Proportions (adjusted) (Week 8, 3 mg minus placebo, All Randomized (includes Duplicate Patients)): 0.076
Odds Ratio (adjusted) (Week 8, 3 mg vs placebo, All Randomized (includes Duplicate Patients)): 0.687
CSBM Weekly Responders, n (%) (Week 8, 3 mg, ITT Population): 145 (32.7) n (%)
Non-Responders, n (%) (Week 8, 3 mg, ITT Population): 298 (67.3) n (%)
CSBM Weekly Responders, n (%) [9]: 144 (33.2) n (%)
Non-Responders, n (%) [9]: 290 (66.8) n (%)
Difference in Proportions (adjusted) (Week 8, 6 mg minus placebo, All Randomized (includes Duplicate Patients)): 0.067
Odds Ratio (adjusted) (Week 8, 6 mg vs placebo, All Randomized (includes Duplicate Patients)): 0.716
CSBM Weekly Responders, n (%) (Week 8, 6 mg, ITT Population): 144 (32.1) n (%)
Non-Responders, n (%) (Week 8, 6 mg, ITT Population): 305 (67.9) n (%)
CSBM Weekly Responders, n (%) [10]: 143 (32.3) n (%)
Non-Responders, n (%) [10]: 300 (67.7) n (%)
Difference in Proportions (adjusted) (Week 8, 3 mg minus placebo, ITT Population-Excluding Duplicate Patients): 0.073
Difference in Proportions (adjusted) (Week 8, 3 mg minus placebo, ITT Population): 0.069
Odds Ratio (adjusted) (Week 8, 3 mg vs placebo, ITT Population-Excluding Duplicate Patients): 0.703
Odds Ratio (adjusted) (Week 8, 3 mg vs placebo, ITT Population): 0.717
Difference in Proportions (adjusted) (Week 8, 6 mg minus placebo, ITT Population-Excluding Duplicate Patients): 0.064
Difference in Proportions (adjusted) (Week 8, 6 mg minus placebo, ITT Population): 0.062
Odds Ratio (adjusted) (Week 8, 6 mg vs placebo, ITT Population-Excluding Duplicate Patients): 0.731
Odds Ratio (adjusted) (Week 8, 6 mg vs placebo, ITT Population): 0.738
CSBM Weekly Responders, n (%) [11]: 287 (32.7) n (%)
Non-Responders, n (%) [11]: 590 (67.3) n (%)
CSBM Weekly Responders, n (%) [12]: 289 (32.4) n (%)
Non-Responders, n (%) [12]: 603 (67.6) n (%)
Difference in Proportions (adjusted) (Week 9, 3 mg minus placebo, All Randomized (includes Duplicate Patients)): 0.084
Odds Ratio (adjusted) (Week 9, 3 mg vs placebo, All Randomized (includes Duplicate Patients)): 0.656
CSBM Weekly Responders, n (%) (Week 9, 3 mg, ITT Population): 147 (33.2) n (%)
Non-Responders, n (%) (Week 9, 3 mg, ITT Population): 296 (66.8) n (%)
CSBM Weekly Responders, n (%) [13]: 146 (33.6) n (%)
Non-Responders, n (%) [13]: 288 (66.4) n (%)
Difference in Proportions (adjusted) (Week 9, 6 mg minus placebo, All Randomized (includes Duplicate Patients)): 0.073
Odds Ratio (adjusted) (Week 9, 6 mg vs placebo, All Randomized (includes Duplicate Patients)): 0.691
CSBM Weekly Responders, n (%) (Week 9, 6 mg, ITT Population): 141 (31.4) n (%)
Non-Responders, n (%) (Week 9, 6 mg, ITT Population): 308 (68.6) n (%)
CSBM Weekly Responders, n (%) [14]: 140 (31.6) n (%)
Non-Responders, n (%) [14]: 303 (68.4) n (%)
Difference in Proportions (adjusted) (Week 9, 3 mg minus placebo, ITT Population-Excluding Duplicate Patients): 0.082
Difference in Proportions (adjusted) (Week 9, 3 mg minus placebo, ITT Population): 0.082
Odds Ratio (adjusted) (Week 9, 3 mg vs placebo, ITT Population-Excluding Duplicate Patients): 0.673
Odds Ratio (adjusted) (Week 9, 3 mg vs placebo, ITT Population): 0.67
Difference in Proportions (adjusted) (Week 9, 6 mg minus placebo, ITT Population-Excluding Duplicate Patients): 0.062
Difference in Proportions (adjusted) (Week 9, 6 mg minus placebo, ITT Population): 0.065
Odds Ratio (adjusted) (Week 9, 6 mg vs placebo, ITT Population-Excluding Duplicate Patients): 0.738
